The target in one assay is AktK (Homo sapiens, UniProt P31749). Put plainly: Luciferase-coupled chemiluminescence kinase assay (ATP consumption). It is filed as biochemical. The following applies: Table 1; class symbols per key; read-out: AKT-1 IC50. Summed up:
(§1)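 Activity is read as ATP depletion: luciferase-luciferin reagent added after a 3 h ambient-temperature kinase reaction, with total ATP use limited to 25-60%. Before ATP addition, 2.5-5 nM kinase and compound were preincubated 30 min in Tris pH 7.5/MgCl2/TX-100/DTT buffer; […].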

The next assay addresses p70S6K (Homo sapiens, UniProt P23443). The assay is described as above. It is filed as biochemical. The following applies: Table 1; class symbols per key. Summed up: as §1

The structures appear in SMILES notation. Where only a bound is given, the exact number is not on record here.

These results are taken from patent US8076338B2, “Kinase modulators and methods of use” (Exelixis, Inc., priority 2004, dated 2011).

Sequence of AktK (P31749 whole entry): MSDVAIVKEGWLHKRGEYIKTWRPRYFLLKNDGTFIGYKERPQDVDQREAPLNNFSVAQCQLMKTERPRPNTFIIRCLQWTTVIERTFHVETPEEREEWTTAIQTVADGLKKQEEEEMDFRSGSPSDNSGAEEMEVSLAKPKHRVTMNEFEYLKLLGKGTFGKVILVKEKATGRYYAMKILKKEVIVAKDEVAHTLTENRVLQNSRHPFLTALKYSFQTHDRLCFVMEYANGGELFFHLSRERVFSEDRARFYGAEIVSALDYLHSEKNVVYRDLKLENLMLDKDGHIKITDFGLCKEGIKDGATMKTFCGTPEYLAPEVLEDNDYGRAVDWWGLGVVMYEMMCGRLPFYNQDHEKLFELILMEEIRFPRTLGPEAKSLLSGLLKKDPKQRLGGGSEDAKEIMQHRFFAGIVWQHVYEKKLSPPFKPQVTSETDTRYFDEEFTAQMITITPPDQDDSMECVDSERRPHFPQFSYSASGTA
Sequence of p70S6K (P23443 whole entry): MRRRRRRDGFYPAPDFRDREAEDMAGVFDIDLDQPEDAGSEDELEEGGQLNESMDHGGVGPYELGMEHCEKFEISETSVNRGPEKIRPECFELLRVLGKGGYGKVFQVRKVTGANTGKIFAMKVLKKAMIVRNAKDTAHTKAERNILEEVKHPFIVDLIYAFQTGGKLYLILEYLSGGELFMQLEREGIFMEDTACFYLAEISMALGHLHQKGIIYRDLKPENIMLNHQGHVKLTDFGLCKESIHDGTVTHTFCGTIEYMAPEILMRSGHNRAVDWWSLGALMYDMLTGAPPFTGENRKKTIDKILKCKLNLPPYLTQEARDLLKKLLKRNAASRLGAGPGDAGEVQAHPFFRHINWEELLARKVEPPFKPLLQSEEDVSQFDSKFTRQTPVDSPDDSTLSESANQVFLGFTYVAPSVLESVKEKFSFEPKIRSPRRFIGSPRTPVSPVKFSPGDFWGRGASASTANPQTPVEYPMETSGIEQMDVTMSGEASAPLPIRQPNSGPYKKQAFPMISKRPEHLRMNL

Consider `Cc1c(NCCN(C)C)cc(C(=O)NC(C)C)cc1N1CCN(c2ncnc3[nH]nc(Br)c23)CC1` [Entry 227, 3-[4-(3-bromo-1H-pyrazolo[3,4-d]pyrimidin-4-yl)piperazin-1-yl]-5-{[2-(dimethylamino)eth-yl]amino}-4-methyl-N-(1-methylethyl)benzamide], for which the IC50 at AktK and on p70S6K was below 100 nM each time.

Consider `CCCCC(=O)c1cc(NCCN2CCCC2)c(C)c(N2CCN(c3ncnc4[nH]nc(Br)c34)CC2)c1` [Entry 228, 1-{3-[4-(3-bromo-1H-pyrazolo[3,4-d]pyrimidin-4-yl)piperazin-1-yl]-4-methyl-5-[(2-pyrrolidin-1-ylethyl)amino]phenyl}pentan-1-one], for which the 50% inhibitory concentration (IC50) at AktK and at p70S6K was below 100 nM throughout.

As for `Cc1c(NCCN(C)C)cc(OCC(F)(CF)CF)cc1N1CCN(c2ncnc3[nH]nc(Br)c23)CC1` [Entry 229, N′-(3-[4-(3-bromo-1H-pyrazolo[3,4-d]pyrimidin-4-yl)piperazin-1-yl]-5-{[2,3-difluoro-2-(fluorometh-yl)propyl]oxy}-2-methylphenyl)-N,N-dimethylethane-1,2-diamine], the IC50 on AktK and on p70S6K was below 100 nM each time.

As to `Cc1c(NCCN2CCCC2)cc(OCC(F)(CF)CF)cc1N1CCN(c2ncnc3[nH]nc(Br)c23)CC1` [Entry 230, 3-[4-(3-bromo-1H-pyrazolo[3,4-d]pyrimidin-4-yl)piperazin-1-yl]-5-{[2,3-difluoro-2-(fluoro-methyl)propyl]oxy}-2-methyl-N-(2-pyrrolidin-1-ylethyl)aniline], the IC50 on AktK and at p70S6K was below 100 nM in each case.

In the case of `Cc1c(NCCN2CCCC2)cc(-c2ccccc2)cc1N1CCN(c2ncnc3[nH]nc(Br)c23)CC1` [Entry 231, 5-[4-(3-bromo-1H-pyrazolo[3,4-d]pyrimidin-4-yl)piperazin-1-yl]-4-methyl-N-(2-pyrrolidin-1-ylethyl)biphenyl-3-amine], the IC50 at AktK and on p70S6K was below 100 nM throughout.

As to `Cc1c(CCC[n+]2ccccc2)cc(-c2ccccc2)cc1N1CCN(c2ncnc3[nH]nc(Br)c23)CC1` [Entry 232, 1-(3-{5-[4-(3-bromo-1H-pyrazolo[3,4-d]pyrimidin-4-yl)piperazin-1-yl]-4-methylbiphenyl-3-yl}propyl)pyridinium], the IC50 at AktK and on p70S6K was below 100 nM throughout.

Consider `Cc1c(NCCN2CCCC2)cc(-c2nccs2)cc1N1CCN(c2ncnc3[nH]nc(Br)c23)CC1` [Entry 233, 3-[4-(3-bromo-1H-pyrazolo[3,4-d]pyrimidin-4-yl)piperazin-1-yl]-2-methyl-N-(2-pyrrolidin-1-ylethyl)-5-(1,3-thiazol-2-yl)aniline], for which the IC50 at AktK and against p70S6K was below 100 nM in each case.

In the case of `Cc1c(NCCN2CCCC2)cc(C(=O)O)cc1N1CCN(c2ncnc3[nH]nc(Br)c23)CC1` [Entry 234, 3-[4-(3-bromo-1H-pyrazolo[3,4-d]pyrimidin-4-yl)piperazin-1-yl]-4-methyl-5-[(2-pyrrolidin-1-ylethyl)amino]benzoic acid], the IC50 was 1000 to 10000 nM on AktK and below 100 nM at p70S6K.

As to `Cc1c(NCCN2CCCC2)cc(C#Cc2ccccc2)cc1N1CCN(c2ncnc3[nH]nc(Br)c23)CC1` [Entry 235, 3-[4-(3-bromo-1H-pyrazolo[3,4-d]pyrimidin-4-yl)piperazin-1-yl]-2-methyl-5-(phenylethynyl)-N-(2-pyrrolidin-1-ylethyl)aniline], the results for the IC50 on AktK and against p70S6K were 100 to 1000 nM and below 100 nM, respectively.

For `Cc1c(NCCN2CCCC2)cc(C(=O)c2ccccc2)cc1N1CCN(c2ncnc3[nH]nc(Br)c23)CC1` [Entry 236, {3-[4-(3-bromo-1H-pyrazolo[3,4-d]pyrimidin-4-yl)piperazin-1-yl]-4-methyl-5-[(2-pyrrolidin-1-ylethyl)amino]phenyl}(phenyl)methanone], the IC50 at AktK and on p70S6K was below 100 nM throughout.

`C#Cc1cc(NCCN2CCCC2)c(C)c(N2CCN(c3ncnc4[nH]nc(Br)c34)CC2)c1` [Entry 237, 3-[4-(3-bromo-1H-pyrazolo[3,4-d]pyrimidin-4-yl)piperazin-1-yl]-5-ethynyl-2-methyl-N-(2-pyrrolidin-1-ylethyl)aniline]: the IC50 at AktK and at p70S6K was below 100 nM each time.

On to `Cc1c(NCCN2CCCC2)cc(C#CC(C)(C)C)cc1N1CCN(c2ncnc3[nH]nc(Br)c23)CC1` [Entry 238, 3-[4-(3-bromo-1H-pyrazolo[3,4-d]pyrimidin-4-yl)piperazin-1-yl]-5-(3,3-dimethylbut-1-yn-1-yl)-2-methyl-N-(2-pyrrolidin-1-ylethyl)aniline], for which the IC50 on AktK and on p70S6K was below 100 nM each time.

Turning to `Cc1c(CCCN2CCCC2)cc(OCC(C)C)cc1N1CCN(c2ncnc3[nH]nc(Br)c23)CC1` [Entry 240, 3-bromo-4-{4-[2-methyl-5-[(2-methylpropyl)oxy]-3-(3-pyrrolidin-1-ylpropyl)phenyl]piperazin-1-yl}-1H-pyrazolo[3,4-d]pyrimidine], the IC50 on AktK and against p70S6K was below 100 nM each time.

As for `Cc1c(NCCN2CCCC2)cc(-c2nc(-c3ccccc3)no2)cc1N1CCN(c2ncnc3[nH]nc(Br)c23)CC1` [Entry 241, 3-[4-(3-bromo-1H-pyrazolo[3,4-d]pyrimidin-4-yl)piperazin-1-yl]-2-methyl-5-(3-phenyl-1,2,4-oxadiazol-5-yl)-N-(2-pyrrolidin-1-ylethyl)aniline], the IC50 on AktK is 1000 to 10000 nM; at p70S6K it was below 100 nM.

Take `Cc1noc(-c2cc(NCCN3CCCC3)c(C)c(N3CCN(c4ncnc5[nH]nc(Br)c45)CC3)c2)n1` [Entry 242, 3-[4-(3-bromo-1H-pyrazolo[3,4-d]pyrimidin-4-yl)piperazin-1-yl]-2-methyl-5-(3-methyl-1,2,4-oxadiazol-5-yl)-N-(2-pyrrolidin-1-ylethyl)aniline]: the IC50 on AktK and on p70S6K was below 100 nM in each case.

For the compound `CCC(=O)c1cc(NCCN2CCCC2)c(C)c(N2CCN(c3ncnc4[nH]nc(Br)c34)CC2)c1` [Entry 243, 1-{3-[4-(3-bromo-1H-pyrazolo[3,4-d]pyrimidin-4-yl)piperazin-1-yl]-4-methyl-5-[(2-pyrrolidin-1-ylethyl)amino]phenyl}propan-1-one], the IC50 at AktK and against p70S6K was below 100 nM in each case.

Consider `Cc1c(NCCN2CCCC2)cc(CCC(C)(C)C)cc1N1CCN(c2ncnc3[nH]nc(Br)c23)CC1` [Entry 244, 3-[4-(3-bromo-1H-pyrazolo[3,4-d]pyrimidin-4-yl)piperazin-1-yl]-5-(3,3-dimethylbutyl)-2-methyl-N-(2-pyrrolidin-1-ylethyl)aniline], for which the IC50 on AktK and at p70S6K was below 100 nM in each case.

On to `CCc1cc(NCCN2CCCC2)c(C)c(N2CCN(c3ncnc4[nH]nc(Br)c34)CC2)c1` [Entry 245, 3-[4-(3-bromo-1H-pyrazolo[3,4-d]pyrimidin-4-yl)piperazin-1-yl]-5-ethyl-2-methyl-N-(2-pyrrolidin-1-ylethyl)aniline], for which the values for the IC50 at AktK and on p70S6K were 100 to 1000 nM and below 100 nM, respectively.

`Cc1c(NCCN2CCCC2)cc(CC[Si](C)(C)C)cc1N1CCN(c2ncnc3[nH]nc(Br)c23)CC1` [Entry 246, 3-[4-(3-bromo-1H-pyrazolo[3,4-d]pyrimidin-4-yl)piperazin-1-yl]-2-methyl-N-(2-pyrrolidin-1-ylethyl)-5-[2-(trimethylsilyl)ethyl]aniline]: the IC50 on AktK and at p70S6K was below 100 nM each time.
